Test results taken from ChEMBL document CHEMBL1201862, “PubChem BioAssay data set” (2004).
Activity calls are given as the source filed them.

Legend:
[1] = target: T1, Zinc finger protein mex-5 (Caenorhabditis elegans, UniProt Q9XUB2); assay: MEX-5/TCR-2 RNA interaction inhibitors, dose response, biochemical, C. elegans, fluorescence polarization (AID 1960)
T1 sequence (Q9XUB2 whole entry): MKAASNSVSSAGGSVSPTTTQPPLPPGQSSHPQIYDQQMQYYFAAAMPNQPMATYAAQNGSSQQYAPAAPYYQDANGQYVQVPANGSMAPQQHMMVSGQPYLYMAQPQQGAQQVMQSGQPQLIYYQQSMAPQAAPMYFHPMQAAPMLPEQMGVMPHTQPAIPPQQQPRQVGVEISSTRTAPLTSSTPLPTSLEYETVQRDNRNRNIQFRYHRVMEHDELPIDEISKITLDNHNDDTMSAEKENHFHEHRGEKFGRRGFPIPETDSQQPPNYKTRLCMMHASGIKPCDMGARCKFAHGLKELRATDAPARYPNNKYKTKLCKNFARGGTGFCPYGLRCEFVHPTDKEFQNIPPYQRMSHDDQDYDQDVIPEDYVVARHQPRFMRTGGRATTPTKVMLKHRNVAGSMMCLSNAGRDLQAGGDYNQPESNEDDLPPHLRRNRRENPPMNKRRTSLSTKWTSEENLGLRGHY

A-375 = assay: A375 melanoma cell viability reduction, dose response, counter-screen for MITF modulator project, cherry-pick samples, set 2 (AID 540335); assay type: functional, cell-based; details: Homo sapiens
[2] = target: T2, Microphthalmia-associated transcription factor (Homo sapiens, UniProt O75030); assay: TRPM1 promoter luciferase signal decrease, dose response, MITF inhibitor project, cell-based, SK-MEL-5, cherry-picked, set 3 (AID 493073); assay type: functional
T2 sequence (O75030 whole entry): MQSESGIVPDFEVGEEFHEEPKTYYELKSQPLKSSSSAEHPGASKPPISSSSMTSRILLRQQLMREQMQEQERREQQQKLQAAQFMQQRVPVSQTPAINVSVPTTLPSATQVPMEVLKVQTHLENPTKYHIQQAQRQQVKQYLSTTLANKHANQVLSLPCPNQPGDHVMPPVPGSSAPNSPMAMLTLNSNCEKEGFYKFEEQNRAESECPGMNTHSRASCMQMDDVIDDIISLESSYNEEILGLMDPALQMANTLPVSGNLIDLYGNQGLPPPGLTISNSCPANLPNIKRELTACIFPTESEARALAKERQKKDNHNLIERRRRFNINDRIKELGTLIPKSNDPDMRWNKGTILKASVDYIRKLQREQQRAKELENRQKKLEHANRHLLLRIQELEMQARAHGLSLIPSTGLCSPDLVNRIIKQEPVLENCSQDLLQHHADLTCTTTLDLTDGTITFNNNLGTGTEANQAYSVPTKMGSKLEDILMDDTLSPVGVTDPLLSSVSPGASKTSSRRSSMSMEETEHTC

[3] = target: T3, RNA-binding protein pos-1 (Caenorhabditis elegans, UniProt G5EF15); assay: inhibitors of POS-1/mex-3 RNA binding, dose response, biochemical, fluorescence polarization (AID 1964);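 further: purified POS-1 fused to maltose binding protein made in E. coli; potency of compounds blocking POS-1 binding to fluorescent RNA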
T3 sequence (G5EF15 whole entry): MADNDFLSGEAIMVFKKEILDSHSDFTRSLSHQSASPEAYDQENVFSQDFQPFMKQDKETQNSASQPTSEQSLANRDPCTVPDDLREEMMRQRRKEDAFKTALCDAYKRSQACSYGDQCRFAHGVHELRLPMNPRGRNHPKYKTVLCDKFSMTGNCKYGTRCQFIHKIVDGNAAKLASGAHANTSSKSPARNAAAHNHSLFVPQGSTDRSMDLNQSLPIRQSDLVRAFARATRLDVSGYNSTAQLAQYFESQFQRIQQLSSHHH

[4] = target: Apoptotic protease-activating factor 1 (Homo sapiens, UniProt O14727); assay type: functional
[5] = target: Beta-2 adrenergic receptor (Homo sapiens, UniProt P07550); assay: beta2AR agonists driving receptor internalization, dose response, cell-based, FAP fluorogen, flow cytometry, cherry pick 1 (AID 588763); assay type: functional
Large T antigen = Large T antigen (Simian virus 40, UniProt P03070); assay type: functional, Betapolyomavirus macacae;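 further: Confirmatory-stage PubChem screen for compounds that inhibit SV40 T antigen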
[6] = target: T4, Kappa-type opioid receptor (Homo sapiens, UniProt P41145); assay type: functional
[7] = HeLa cell cytotoxicity, dose response, cytotoxicity control for MgcRacGAP inhibitor project (AID 624300); assay type: functional
[8] = target: T5, Rac GTPase-activating protein 1 (Homo sapiens, UniProt Q9H0H5); assay: MgcRacGAP GTPase-activating activity inhibitors, confirmation, biochemical, ADP Hunter fluorescence, primary and confirmatory (AID 624330); assay type: functional
T5 sequence (Q9H0H5 whole entry): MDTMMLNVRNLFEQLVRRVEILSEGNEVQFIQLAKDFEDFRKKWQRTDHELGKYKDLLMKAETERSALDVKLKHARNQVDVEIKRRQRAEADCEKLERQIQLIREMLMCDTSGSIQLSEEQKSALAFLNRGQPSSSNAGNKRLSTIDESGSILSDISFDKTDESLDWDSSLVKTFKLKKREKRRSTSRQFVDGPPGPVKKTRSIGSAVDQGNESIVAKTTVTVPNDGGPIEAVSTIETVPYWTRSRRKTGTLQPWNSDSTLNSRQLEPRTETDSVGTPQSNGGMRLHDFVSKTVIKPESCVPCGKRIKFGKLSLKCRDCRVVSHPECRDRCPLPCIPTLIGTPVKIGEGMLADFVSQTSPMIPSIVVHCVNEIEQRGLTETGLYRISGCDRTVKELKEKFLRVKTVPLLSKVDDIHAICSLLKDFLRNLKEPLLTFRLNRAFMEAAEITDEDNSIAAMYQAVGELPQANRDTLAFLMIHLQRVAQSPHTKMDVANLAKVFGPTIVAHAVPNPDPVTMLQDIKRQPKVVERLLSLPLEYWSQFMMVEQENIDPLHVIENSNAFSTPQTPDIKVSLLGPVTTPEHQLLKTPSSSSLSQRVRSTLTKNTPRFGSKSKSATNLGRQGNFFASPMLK

Beta Lactamase [9] = target: T6, Beta Lactamase (Pseudomonas aeruginosa, UniProt Q932Y6); assay: beta-lactamase reporter inhibitor potency, dose response, artefact control for TLR9-MyD88 binding inhibitor project, BLA reporter cells, FRET fluorescence (AID 588341); assay type: cell-based;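 further: cell based assay in CHO-K1 cells stably expressing beta-lactamase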
[10] = target: T4, Kappa-type opioid receptor; assay type: functional; remark: listed apart in the source
Beta-galactosidase = Beta-galactosidase (Escherichia coli, UniProt Q8VNN2); assay type: functional
INS1 [11] = assay: beta cell apoptosis inhibitors, cytokine rescue, dose response, luminescence, retest (AID 449756); assay type: functional, cell-based; details: Rattus norvegicus;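 further: cell death triggered by IL-1 beta plus TNF-alpha plus IFN-gamma mixture; protective hits raise ATP signal compared with cytokine alone wells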
[12] = Fluorescence-based cell-based high throughput dose response assay for inhibitors of the interaction of nucleotide-binding oligomerization domain containing 2 (NOD2) and the receptor-interacting serine-threonine kinase 2 (RIPK2).; assay type: functional; details: Homo sapiens
Beta Lactamase [13] = target: T6, Beta Lactamase; assay: beta-lactamase reporter inhibitor potency, dose response, artefact control for NOD2-RIPK2 interaction inhibitor project, BLA reporter cells, FRET fluorescence (AID 651552); assay type: functional, cell-based
CHO = assay: cytotoxicity in TLR9-MyD88 CHO cells, dose response, cytotoxicity control for TLR9-MyD88 binding inhibitor project, cell-based, luminescence (AID 588339); assay type: functional, hamster; details: Cricetulus griseus;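 further: CHO cells stably coexpressing TLR9 and MyD88 fusions from primary screen; compound exposure lasted 48 hours before viability readout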
[14] = ADP-Glo luciferase interference without Dyrk1A, dose response, artefact control for Dyrk1A inhibitor project, biochemical, luminescence, cherry-pick, set 02 (AID 588348)
HSP90 = HSP90 (Plasmodium falciparum 3D7, UniProt Q8IL32); assay type: functional, organism-based
INS1 [15] = assay: protection of INS-1E cells from cytokine death, dose response, ATP luminescence, dry powder (AID 488844); assay type: functional, cell-based; details: Rattus norvegicus
INS1 [16] = assay: protection from cytokine-induced mitochondrial depolarization, dose response, cell-based, INS-1E, JC-1 fluorescence ratio, dry powder (AID 488931); assay type: functional; details: Rattus norvegicus
INS1 [17] = assay: inhibitors of cytokine-induced nitrite release, dose response, cell-based, Griess absorbance, INS-1E, dry powder, set 2 (AID 488868); assay type: functional; details: Rattus norvegicus
INS1 [18] = assay: protection from cytokine-driven beta-cell apoptosis, dose response, JC-1 fluorescence, INS-1E, dry powder, set 2 (AID 488867); assay type: functional, cell-based; details: Rattus norvegicus
HEK293 [19] = assay: SAR Analysis of small molecule inhibitors of T-cell specific antigen receptor-induced NF-kB activation in a HEK-293T cell line using a luminescence assay - Set 2. [Related pubchem assays (depositor defined):AID435003, AID435012, AID489026]; assay type: functional, cell-based; details: Homo sapiens
HEK293 [20] = assay: cytotoxicity in HEK293T NF-kB-Luc cells, SAR follow-up, cytotoxicity control for NF-kB activator project, cell-based, resazurin fluorescence (AID 493251); assay type: functional; details: Homo sapiens
Jurkat = assay: SAR Analysis of small molecule inhibitors of T-cell specific antigen receptor-induced NF-kB activation in a Jurkat cell line using a luminescence assay - Set 2. [Related pubchem assays (depositor defined):AID435003, AID435012, AID465]; assay type: functional, cell-based; details: Homo sapiens
[21] = inhibitors of intracellular T. cruzi replication, confirmation, NIH3T3 host cells, beta-gal luminescence (AID 2044); assay type: functional, cell-based;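 further: intracellular parasites grown in NIH/3T3 mouse fibroblasts as host cells; luminescent beta-galactosidase reporter signal from transgenic T. cruzi replicating inside host cells; inhibitors lower the luminescence signal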
[22] = NIH-3T3 fibroblast cytotoxicity, dose response, cytotoxicity control, cell-based, fluorescence, Alamar Blue, secondary assay (AID 2327); assay type: functional;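 further: NIH-3T3 mouse fibroblasts cultured with fluconazole at 8 µg/mL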
[23] = C. albicans growth with fluconazole, confirmation, fluorescence, retest (AID 2467); assay type: functional, cell-based
[24] = target: ATP-dependent molecular chaperone HSP82 (Candida albicans (strain WO-1) (Yeast), UniProt C4YTQ8); assay: loss of DOC-induced GRE-beta-galactosidase reporter signal, dose response, Hsp90 inhibitor project, S. cerevisiae, luminescence (AID 2400); assay type: functional, cell-based;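 further: beta-galactosidase luminescence from glucocorticoid response element reporter as proxy for Hsp90 function; inhibitor potency where signal loss means Hsp90 inhibition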
[25] = cytotoxicity toward NIH3T3 fibroblasts, dose response, counter-screen, cell-based, ATP luminescence, mouse fibroblasts (AID 2010); assay type: functional;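 further: cells exposed to compound for about 90 hours before reading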
[26] = target: Serine/threonine-protein phosphatase (Candida dubliniensis (strain CD36 / CBS 7987 / NCPF 3949 / NRRLY-17841) (Yeast), UniProt B9W6M3); assay: calcineurin pathway inhibitors in yeast reporter, dose response, S. cerevisiae, CDRE-lacZ, luminescence, secondary (AID 2388); assay type: functional, cell-based;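 further: yeast reporter cells carrying a calcineurin-responsive lacZ construct stimulated with calcium chloride; luminescent beta-galactosidase reporter signal in whole cells rather than isolated phosphatase activity; potency for inhibition where a drop in reporter signal means calcineurin blockade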

T4 sequence (P41145 whole entry): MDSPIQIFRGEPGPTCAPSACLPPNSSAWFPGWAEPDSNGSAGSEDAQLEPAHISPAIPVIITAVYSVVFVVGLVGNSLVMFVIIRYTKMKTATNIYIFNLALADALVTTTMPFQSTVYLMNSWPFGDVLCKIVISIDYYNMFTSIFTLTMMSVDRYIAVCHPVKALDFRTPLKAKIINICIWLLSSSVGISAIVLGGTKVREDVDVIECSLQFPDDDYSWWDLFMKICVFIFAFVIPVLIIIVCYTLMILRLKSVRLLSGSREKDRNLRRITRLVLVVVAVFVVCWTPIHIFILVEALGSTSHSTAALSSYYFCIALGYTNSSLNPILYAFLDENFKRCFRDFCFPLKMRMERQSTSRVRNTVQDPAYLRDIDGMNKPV
T6 sequence (Q932Y6 whole entry): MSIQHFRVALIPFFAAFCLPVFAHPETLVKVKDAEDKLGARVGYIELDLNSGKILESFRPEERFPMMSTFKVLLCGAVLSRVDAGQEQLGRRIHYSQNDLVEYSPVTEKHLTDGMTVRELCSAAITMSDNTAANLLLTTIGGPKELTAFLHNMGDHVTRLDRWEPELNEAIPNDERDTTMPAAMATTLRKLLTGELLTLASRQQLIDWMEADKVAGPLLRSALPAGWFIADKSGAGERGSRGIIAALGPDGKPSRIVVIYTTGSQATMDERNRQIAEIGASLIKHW
HSP90, sequence (Q8IL32 whole entry): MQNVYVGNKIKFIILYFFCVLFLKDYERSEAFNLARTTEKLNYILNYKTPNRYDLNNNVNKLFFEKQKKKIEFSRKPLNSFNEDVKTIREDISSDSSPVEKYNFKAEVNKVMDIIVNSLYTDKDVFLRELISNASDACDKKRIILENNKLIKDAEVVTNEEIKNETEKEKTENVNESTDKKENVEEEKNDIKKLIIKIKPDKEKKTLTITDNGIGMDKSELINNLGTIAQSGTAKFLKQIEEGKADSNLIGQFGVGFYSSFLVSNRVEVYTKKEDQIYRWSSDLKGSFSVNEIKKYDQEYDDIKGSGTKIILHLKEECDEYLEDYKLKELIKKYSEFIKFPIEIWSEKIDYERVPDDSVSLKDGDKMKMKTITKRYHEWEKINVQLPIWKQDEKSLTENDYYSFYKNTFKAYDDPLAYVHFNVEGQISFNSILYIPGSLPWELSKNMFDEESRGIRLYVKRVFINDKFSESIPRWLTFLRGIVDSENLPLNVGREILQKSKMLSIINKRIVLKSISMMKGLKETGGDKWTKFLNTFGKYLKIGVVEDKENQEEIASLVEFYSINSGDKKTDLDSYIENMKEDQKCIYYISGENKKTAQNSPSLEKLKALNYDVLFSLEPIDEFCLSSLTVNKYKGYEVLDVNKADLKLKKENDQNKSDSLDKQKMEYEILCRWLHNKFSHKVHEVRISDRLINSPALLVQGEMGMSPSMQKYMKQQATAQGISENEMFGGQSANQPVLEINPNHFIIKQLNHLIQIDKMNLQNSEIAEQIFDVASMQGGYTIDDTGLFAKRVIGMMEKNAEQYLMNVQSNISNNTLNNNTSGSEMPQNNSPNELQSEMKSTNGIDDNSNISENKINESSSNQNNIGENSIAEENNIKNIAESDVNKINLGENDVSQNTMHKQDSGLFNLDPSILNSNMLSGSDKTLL
Beta-2 adrenergic receptor, sequence (P07550 whole entry): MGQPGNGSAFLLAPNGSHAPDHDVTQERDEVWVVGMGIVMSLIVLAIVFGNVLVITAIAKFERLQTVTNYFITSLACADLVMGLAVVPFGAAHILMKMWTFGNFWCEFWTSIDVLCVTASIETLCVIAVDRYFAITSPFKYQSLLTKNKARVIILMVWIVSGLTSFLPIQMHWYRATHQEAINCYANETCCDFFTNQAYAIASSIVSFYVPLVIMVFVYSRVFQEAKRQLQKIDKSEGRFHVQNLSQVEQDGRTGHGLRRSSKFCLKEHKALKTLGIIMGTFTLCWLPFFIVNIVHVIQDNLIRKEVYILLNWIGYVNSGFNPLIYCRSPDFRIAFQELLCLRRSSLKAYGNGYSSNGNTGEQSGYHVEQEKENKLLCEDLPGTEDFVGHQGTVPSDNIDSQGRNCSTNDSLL
Beta-galactosidase, sequence (Q8VNN2 whole entry): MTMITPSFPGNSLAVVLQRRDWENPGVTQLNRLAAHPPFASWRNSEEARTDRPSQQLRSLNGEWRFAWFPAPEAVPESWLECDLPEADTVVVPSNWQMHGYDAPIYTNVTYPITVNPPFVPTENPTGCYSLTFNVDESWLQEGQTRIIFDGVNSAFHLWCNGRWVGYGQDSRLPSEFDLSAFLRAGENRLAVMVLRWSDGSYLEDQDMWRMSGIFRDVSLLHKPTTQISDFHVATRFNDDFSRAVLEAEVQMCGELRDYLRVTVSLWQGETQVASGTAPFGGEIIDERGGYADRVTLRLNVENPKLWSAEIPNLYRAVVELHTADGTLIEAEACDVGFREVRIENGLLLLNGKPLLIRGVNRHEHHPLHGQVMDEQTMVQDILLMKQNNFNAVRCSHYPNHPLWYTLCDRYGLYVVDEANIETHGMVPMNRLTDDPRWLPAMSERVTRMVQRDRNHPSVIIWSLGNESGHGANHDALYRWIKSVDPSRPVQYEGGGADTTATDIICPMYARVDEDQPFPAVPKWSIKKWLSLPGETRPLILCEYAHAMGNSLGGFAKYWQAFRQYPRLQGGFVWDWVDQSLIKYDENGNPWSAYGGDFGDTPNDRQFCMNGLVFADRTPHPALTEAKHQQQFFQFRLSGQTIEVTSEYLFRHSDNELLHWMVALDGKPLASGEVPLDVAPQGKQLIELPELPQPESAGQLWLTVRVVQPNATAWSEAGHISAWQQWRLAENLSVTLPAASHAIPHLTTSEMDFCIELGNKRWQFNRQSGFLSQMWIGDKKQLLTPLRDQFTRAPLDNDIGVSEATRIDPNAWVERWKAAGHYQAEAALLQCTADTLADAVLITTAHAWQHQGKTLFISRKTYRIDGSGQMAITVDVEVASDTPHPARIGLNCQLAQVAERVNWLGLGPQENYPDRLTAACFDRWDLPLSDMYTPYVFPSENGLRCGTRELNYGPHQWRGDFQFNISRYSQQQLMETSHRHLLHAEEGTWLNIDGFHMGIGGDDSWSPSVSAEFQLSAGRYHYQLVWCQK
ATP-dependent molecular chaperone HSP82, sequence (C4YTQ8 whole entry): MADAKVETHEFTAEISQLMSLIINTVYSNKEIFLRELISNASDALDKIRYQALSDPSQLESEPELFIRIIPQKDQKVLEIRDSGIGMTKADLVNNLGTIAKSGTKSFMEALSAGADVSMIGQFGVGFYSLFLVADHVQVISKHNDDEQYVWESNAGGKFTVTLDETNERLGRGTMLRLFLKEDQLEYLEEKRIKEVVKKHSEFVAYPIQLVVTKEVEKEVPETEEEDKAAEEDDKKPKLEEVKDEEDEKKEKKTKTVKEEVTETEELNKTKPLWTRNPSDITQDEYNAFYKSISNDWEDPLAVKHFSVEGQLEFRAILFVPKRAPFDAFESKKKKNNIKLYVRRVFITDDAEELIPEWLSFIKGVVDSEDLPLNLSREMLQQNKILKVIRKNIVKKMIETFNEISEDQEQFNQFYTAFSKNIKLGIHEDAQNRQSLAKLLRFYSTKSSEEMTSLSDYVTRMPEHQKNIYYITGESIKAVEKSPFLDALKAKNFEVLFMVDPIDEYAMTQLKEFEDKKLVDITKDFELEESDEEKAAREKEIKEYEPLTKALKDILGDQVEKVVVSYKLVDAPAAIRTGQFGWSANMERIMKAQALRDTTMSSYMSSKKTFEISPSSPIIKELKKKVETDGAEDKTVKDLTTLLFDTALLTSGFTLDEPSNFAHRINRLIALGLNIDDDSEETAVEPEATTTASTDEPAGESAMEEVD
Large T antigen, sequence (P03070 whole entry): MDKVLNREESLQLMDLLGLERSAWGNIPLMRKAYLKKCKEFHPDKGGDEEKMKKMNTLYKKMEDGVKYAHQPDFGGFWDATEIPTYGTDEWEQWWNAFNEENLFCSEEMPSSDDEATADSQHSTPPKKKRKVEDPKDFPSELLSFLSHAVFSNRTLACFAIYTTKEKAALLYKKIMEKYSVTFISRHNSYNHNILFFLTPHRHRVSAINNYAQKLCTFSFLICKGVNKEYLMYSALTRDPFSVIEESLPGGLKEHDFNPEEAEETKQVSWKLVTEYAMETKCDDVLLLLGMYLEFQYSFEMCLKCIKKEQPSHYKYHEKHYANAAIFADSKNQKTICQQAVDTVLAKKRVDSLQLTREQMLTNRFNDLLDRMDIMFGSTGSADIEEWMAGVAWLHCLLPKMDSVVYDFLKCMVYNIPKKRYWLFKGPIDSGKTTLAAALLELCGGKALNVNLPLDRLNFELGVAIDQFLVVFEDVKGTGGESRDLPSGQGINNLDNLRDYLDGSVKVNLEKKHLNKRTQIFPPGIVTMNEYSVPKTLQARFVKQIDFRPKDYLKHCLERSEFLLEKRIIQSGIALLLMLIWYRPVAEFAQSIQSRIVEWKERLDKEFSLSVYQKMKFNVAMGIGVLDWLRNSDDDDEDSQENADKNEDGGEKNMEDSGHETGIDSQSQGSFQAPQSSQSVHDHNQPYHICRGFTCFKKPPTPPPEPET

In the case of Cc1ccc(C(=O)N/C(=C\c2ccc(-c3ccccc3[N+](=O)[O-])o2)C(=O)NCCCN(C)C)cc1, the EC50 [1] is reported as 18.6 µM (active), the AC50 (A-375) is reported as 33.4 µM (active) and the AC50 [2] is reported as 3.28 µM (active). The EC50 [3] was > 300 µM (inconclusive) and the IC50 [4] was 70.1 µM (active).

With CN(c1ccccc1)S(=O)(=O)c1cccc(C(=O)Nc2cccc(C(=O)NC3CC3)c2)c1 the EC50 [5] was 0.575 µM (active).

In the case of N#CC(C#N)=C1C=CC=CN1/C(=C\c1ccco1)C(=O)c1ccc(Br)cc1, the IC50 (Large T antigen) is reported as 15.5 µM (active), the IC50 [6] is reported as 4.51 µM (active) and the CC50 [7] is reported as 100 µM (active). The AC50 [2] was 5.59 µM (active), the IC50 [8] was 88.7 µM (active) and the IC50 (Beta Lactamase [9]) was 13.2 µM (inactive). For the same compound, the IC50 [10] was 15.4 µM, the EC50 (Beta-galactosidase) was > 31.5 µM (inactive) and the AC50 (INS1 [11]) was 7.3 µM (active). For the same compound, the IC50 [12] was 0.895 µM (active), the IC50 (Beta Lactamase [13]) was 44.7 µM (inactive) and the IC50 (CHO) was 1.56 µM (active).

With CC(=O)Nc1cccc(C(=O)OCC(=O)c2ccc3c(c2)OCO3)c1 the AC50 [14] was 50.2 µM (active).

In the case of O=C(COc1ccc(Cl)cc1)NC1=NN(c2ccccc2)C(=O)C1, the AC50 (HSP90) is reported as 32.5 µM (active).

In the case of Cc1ccc(S(=O)(=O)N(C)C[C@@H]2Oc3c(NC(=O)Nc4cccc5ccccc45)cccc3C(=O)N([C@H](C)CO)C[C@H]2C)cc1, the AC50 (INS1 [15]) is reported as > 235 µM (inactive), the AC50 (INS1 [16]) is reported as 61.1 µM (active) and the AC50 (INS1 [17]) is reported as 30.3 µM (active).

With COc1ccc(S(=O)(=O)N(C)C[C@@H]2Oc3c(NC(=O)Nc4ccc(F)cc4)cccc3C(=O)N([C@@H](C)CO)C[C@H]2C)cc1 the AC50 (INS1 [15]) was 22.8 µM (active) and the AC50 (INS1 [18]) was 134 µM (active).

With COc1cc(NC(=O)c2ccc3c(c2)OCO3)ccc1NC(=O)c1cc2ccccc2o1 the IC50 (HEK293 [19]) was > 80 µM (inactive), the IC50 (HEK293 [20]) was > 80 µM (inactive) and the IC50 (Jurkat) was > 79 µM (inactive).

In the case of CCOc1ccccc1NC(=O)C(=O)N/N=C/c1cc(Br)ccc1O, the EC50 [21] is reported as 1.02 µM (active), the AC50 [2] is reported as 3.34 µM (active) and the EC50 [22] is reported as > 160 µM (inactive). For the same compound, the EC50 [23] was 0.358 µM (active), the EC50 [24] was > 160 µM (inactive) and the EC50 [25] was > 60 µM (not active). For the same compound, the AC50 (INS1 [11]) was 1.04 µM (active) and the EC50 [26] was > 180 µM (inactive).
